Measured values taken from PubChem BioAssay (NCI).
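A five-concentration, 48-hour dose response in 96-well plates underlies each endpoint, interpolated linearly between surrounding concentrations. The concentration for full growth arrest is given as TGI.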

Tests used:
Assay in all cases: NCI anticancer screen, dose series, 48 h
DMS 114 small cell lung = test system: DMS 114 small cell lung
KM20L2 colon = test system: KM20L2 colon
DMS 273 small cell lung = test system: DMS 273 small cell lung
M19-MEL melanoma = test system: M19-MEL melanoma
DLD-1 colon = test system: DLD-1 colon
XF 498 CNS = test system: XF 498 CNS
RXF-631 renal = test system: RXF-631 renal
SNB-78 CNS = test system: SNB-78 CNS
HOP-18 NSCLC = test system: HOP-18 NSCLC

SMILES | TGI (DMS 114 small cell lung) | TGI (KM20L2 colon) | TGI (DMS 273 small cell lung) | TGI (M19-MEL melanoma) | TGI (DLD-1 colon) | TGI (XF 498 CNS) | TGI (RXF-631 renal) | TGI (SNB-78 CNS) | TGI (HOP-18 NSCLC)
CSc1nc2c(nc(C)c(=O)n2C2OCC(OC(C)=O)C(OC(C)=O)C2OC(C)=O)c(=O)[nH]1 (stereo not drawn) | > 100 µM | > 100 µM | > 100 µM | > 100 µM | > 100 µM | > 100 µM | – | – | –
COc1cc(C[S+]2CCCC2)c(SC)cc1C[S+]1CCCC1 | > 100 µM | > 100 µM | – | > 100 µM | > 100 µM | > 100 µM | > 100 µM | > 100 µM | –
C[C@]12C=CC(=O)C=C1CC[C@H]1[C@@H]3C[C@@H](O)[C@](O)(C(=O)CO)[C@@]3(C)C[C@H](O)[C@@]12F | > 100 µM | > 100 µM | > 100 µM | > 100 µM | > 100 µM | > 100 µM | > 100 µM | > 100 µM | –
O=C(c1ccc(O)cc1)C1c2c3c(cc(O)c2C(c2ccc(O)cc2)C1c1cc(O)cc(O)c1)OC(c1ccc(O)cc1)C3c1cc2c(cc1O)OC(c1ccc(O)cc1)C2c1cc(O)cc(O)c1 (stereo not drawn) | > 12.5 µM | > 12.5 µM | > 12.5 µM | > 12.5 µM | > 12.5 µM | – | – | – | –
CNC(=S)N(C)C(=S)Nn1c(=O)c(C)nn(C)c1=S | > 100 µM | > 100 µM | > 100 µM | > 100 µM | > 100 µM | – | – | > 100 µM | > 100 µM
COc1ccc(C2S/C(=C\c3ccccc3O)C(=O)N2NC(=O)Cc2ccccc2)cc1 (stereo not drawn) | > 100 µM | – | > 100 µM | > 100 µM | > 100 µM | – | – | – | > 100 µM
